The target in the test is T1, γ-secretase (Homo sapiens, UniProt P49768).
T1 construct: endogenous in cells; host or cells: SKNBE2 cells carrying APP 695 wild type
The test is described as follows: Screening for γ-secretase-modulating activity in SKNBE2 cells carrying the APP 695 wild type. The class given is cell-based. The following applies: SKNBE2 cells carrying APP 695 wild type. Here is the method:
Screening of the Compounds of the Invention for γ-Secretase-Modulating Activity
Screening was carried out using SKNBE2 cells carrying the APP 695—wild type, grown in DMEM/NUT-mix F12 (HAM) provided by Gibco (cat no. 31330-38) containing 5% Serum/Fe supplemented with 1% non-essential amino acids.
Cells were grown to near confluency.
The screening was performed using the assay as described in Citron et al (1997) Nature Medicine 3: 67.

In the case of `CC(C)CCN(c1ccc(Cl)cc1)c1cc(-c2ccc(C(F)(F)F)cc2)cc(C(CC(C)C)C(=O)O)c1` (stereo not drawn) [Example 18, 2-{5-[(4-Chloro-phenyl)-(3-methyl-butyl)-amino]-4′-trifluoromethyl-biphenyl-3-yl}-4-methyl-pentanoic acid], the EC50 worked out at 150 nM. As to `CC(C)CC(C(=O)O)c1cc(-c2ccc(C(F)(F)F)cc2)cc(N(C)c2ccc(C(F)(F)F)cc2)c1` (stereo not drawn) [Example 19, 4-Methyl-2-{5-[methyl-(4-trifluoromethyl-phenyl)-amino]-4′-trifluoromethyl-biphenyl-3-yl}-pentanoic acid], at 0.3 µM the inhibition was 22%. As to `CC(C)CCN(c1ccc(C(F)(F)F)cc1)c1cc(-c2ccc(C(F)(F)F)cc2)cc(C(CC(C)C)C(=O)O)c1` (stereo not drawn) [Example 20, 4-Methyl-2-{5-[(3-methyl-butyl)-(4-trifluoromethyl-phenyl)-amino]-4′-trifluoromethyl-biphenyl-3-yl}-pentanoic acid], a half-maximal effect (EC50) was put at 170 nM.

`CC(C)CC(=O)N(c1ccc(Cl)cc1)c1cc(-c2ccc(C(F)(F)F)cc2)cc(C(CC(C)C)C(=O)O)c1` (stereo not drawn) [Example 23, 2-{5-[(4-Chloro-phenyl)-(3-methyl-butyryl)-amino]-4′-trifluoromethyl-biphenyl-3-yl}-4-methyl-pentanoic acid] registered an inhibition at 0.3 µM of 21%.

Take `CC(C)CC(C(=O)O)c1cc(-c2ccc(C(F)(F)F)cc2)cc(N2CCc3ccccc32)c1` (stereo not drawn) [Example 24, 2-[5-(2,3-Dihydro-indol-1-yl)-4′-trifluoromethyl-biphenyl-3-yl]-4-methyl-pentanoic acid]: testing at 0.3 µM gave an inhibition of 0%. `CC(C)CC(C(=O)O)c1cc(-c2cc(F)cc(C(F)(F)F)c2)cc(N(C)c2cc(C(F)(F)F)cc(C(F)(F)F)c2)c1` (stereo not drawn) [Example 25, 2-[5′-Fluoro-5-(N-[3,5-bis-(trifluoromethyl)phenyl]-N-methylamino)-3′-trifluoromethyl-biphenyl-3-yl]-4-methyl-pentanoic acid]: a half-maximal effect (EC50) was put at 600 nM.

Broadly, the EC50 is the midpoint of the concentration-response curve. What is called inhibition is the relative decrease from the control value, in per cent. Higher therefore signals a response far below the control.

These data come from patent US8247610B2, “Amine linked modulators of γ-secretase” (Janssen Pharmaceutica N.V., priority 2007, dated 2012).
